Tests used:
Assay type in all cases: cell-based, human
H1650 = test: Non Small Cell Lung Cancer proliferation assay (Alamar Blue reduction), H1650; details: primary screening, 10 μM compound in 1% DMSO (v/v); for inhibition at 10 µM: Homo sapiens, NCI-H1650, read-out: percentage inhibition H1650
Experimental: (§1) These cells have a doubling time of 1-2 days. All cell types are adherent and grow in colonies. The cells should be kept at a density between 50,000 cells/mL -500,000 cells/mL to provide for optimum growth and adequate nutrition. The cell line should be maintained at 37° C. in a humidified atmosphere with 5% CO2 in a sterile cell culture incubator.
(§2) Non Small Cell Lung Cancer Proliferation Assay.
(§3) High Controls for this assay are made by treating Non Small Cell Lung Cancer cells with 5 ul of 10% DMSO. [Final concentration in this assay is 1% DMSO].
(§4) Important Note: All compounds for testing in this assay should be done at the final concentration of 1% DMSO.
(§5) After addition, the cells are placed in cell culture incubator at 37° C. for 48 hours for complete treatment.
(§6) After drug treatment, cytotoxicity is measured by Alamar Blue reduction.
(§7) The cells are incubated for 48 hours at 37° C. to complete the Alamar Blue reduction.
(§8) The final step in the assay is to measure the amount of Alamar Blue reduction. […] The Alamar Blue fluorescence is measured at an excitation of 530 nm and emission of 590 nm.
(§9) For the NSCLC project, the cell based assay was screened against a small molecule library of approximately 200,000 compounds. The compound library is stored in our automated robotic freezer (Biophile) at −20° C. in 100% DMSO. Compound freeze and thaw cycles are kept to a minimum. […] This assay was performed on a fully automated linear track robotic platform (CRS F3 Robot System, Thermo Electron Corp., Ontario, Canada) utilizing several integrated peripherals for plate handling, liquid dispensing, and readout detection. […] The microplates are then placed at 37° C. for 48 hours to complete treatment of cells with compounds. Next, 5 ul of alamar blue was added using a liquid dispenser (Flexprop Precision Dispenser, Perkin Elmer, Mass., USA) and incubated for 48 hours at 37° C. The alamar blue prompt fluorescence was measured on Victor V (Victor^3 V, Perkin Elmer, Mass., USA) and output data files were loaded into ORIS (Oncology Research Informatics System, MSKCC, NY, USA), a screening data acquisition and analysis platform.
(§10) The dose response studies were done with the following standard procedure. First, the cells were counted and dispensed at 250 cells/well into 384-well microplates with compound. The cells were incubated for 48 hours at 37 C to complete treatment, and then alamar blue was added for an additional 48 hours. Finally, alamar blue reduction was measured and the data was loaded into ORIS, our data screening acquisition platform.

H3255 = test: Non Small Cell Lung Cancer proliferation assay (Alamar Blue reduction), H3255; details: primary screening, 10 μM compound in 1% DMSO (v/v); for inhibition at 10 µM: Homo sapiens, NCI-H3255, read-out: percentage inhibition H3255
Experimental: as §1, §2, §3, §4, §5, §6, §7, §8, §9, §10

H2030 = test: Non Small Cell Lung Cancer proliferation assay (Alamar Blue reduction), H2030; details: primary screening, 10 μM compound in 1% DMSO (v/v); for inhibition at 10 µM: Homo sapiens, NCI-H2030, read-out: percentage inhibition H2030
Experimental: as §1, §2, §3, §4, §5, §6, §7, §8, §9, §10

H1975 = test: Non Small Cell Lung Cancer proliferation assay (Alamar Blue reduction), H1975; details: primary screening, 10 μM compound in 1% DMSO (v/v); for inhibition at 10 µM: Homo sapiens, NCI-H1975, read-out: percentage inhibition H1975
Experimental: as §1, §2, §3, §4, §5, §6, §7, §8, §9, §10

SMILES | inhibition at 10 µM (H1650) | inhibition at 10 µM (H3255) | inhibition at 10 µM (H2030) | inhibition at 10 µM (H1975) | percentage inhibition H1650 (H1650) | percentage inhibition H3255 (H3255) | percentage inhibition H2030 (H2030) | percentage inhibition H1975 (H1975)
O=c1ccc(Cl)nn1-c1cccc(Br)c1 [compound 178393] | 8% | -4% | -11% | 3% | – | – | – | –
CCCOc1cnn(-c2ccccc2)c(=O)c1Cl [compound 179389] | -3% | 28% | 8% | 1% | – | – | – | –
O=C(Cc1ccccc1)Oc1ccc(=O)n(-c2ccccc2)n1 [compound 180651] | 21% | 35% | 11% | 13% | – | – | – | –
Nc1ccc(Sc2cnn(-c3ccccc3)c(=O)c2Cl)cc1 [compound 181612] | 7% | 11% | 11% | -11% | – | – | – | –
N=c1c(-c2nc3ccccc3[nH]2)cc(C(=O)c2ccco2)nn1-c1ccccc1 [compound 181801] | 13% | 7% | -7% | 24% | – | – | – | –
Cc1cccc(-n2nc(C(=O)c3ccco3)cc(-c3nc4ccccc4[nH]3)c2=N)c1 [compound 181802] | -2% | 27% | -5% | 14% | – | – | – | –
COc1ccc(Sc2cnn(-c3ccccc3)c(=O)c2Cl)cc1 [compound 181862] | 7% | 22% | 9% | 3% | – | – | – | –
COc1ccc(-n2nc(C(=O)c3ccco3)cc(-c3nc4ccccc4[nH]3)c2=N)cc1 [compound 182721] | 8% | 4% | 11% | 9% | – | – | – | –
COc1cnn(-c2ccccc2)c(=O)c1SCc1ccc(Cl)c(Cl)c1 [compound 182729] | 10% | 1% | -14% | 23% | – | – | – | –
O=c1c2c(cnn1-c1ccccc1)SC(c1ccccc1)S2 (centres unmarked) [compound 182826] | – | – | – | – | 13% | −13% | −11% | 12%
O=c1c(SCc2ccccc2)c(Cl)cnn1-c1ccccc1 [compound 182827] | -20% | -24% | -6% | 14% | – | – | – | –
O=c1c(SCc2ccccc2)c(SC2CCCCO2)cnn1-c1ccccc1 (centres unmarked) [compound 182828] | 25% | 18% | -8% | -5% | – | – | – | –
Cc1ccc(-n2ncc(SCc3ccccc3)c(Cl)c2=O)cc1 [compound 182830] | 20% | -4% | 3% | 10% | – | – | – | –
CSc1c(SCc2ccccc2)cnn(-c2ccccc2)c1=O [compound 182831] | -4% | -18% | -12% | 5% | – | – | – | –
O=C(CSc1cnn(-c2ccccc2)c(=O)c1Cl)c1ccc(Br)cc1 [compound 183073] | -3% | 30% | 8% | -6% | – | – | – | –
Cc1ccc(C)c(Sc2cnn(-c3ccccc3)c(=O)c2Cl)c1 [compound 183339] | 15% | -30% | -12% | 8% | – | – | – | –
CCOC(=O)C(C)Oc1ccc(=O)n(-c2ccccc2)n1 (centres unmarked) [compound 185423] | 16% | 23% | 3% | -9% | – | – | – | –
N=c1c(-c2nc3ccccc3[nH]2)cc(C(=O)c2cccs2)nn1-c1ccc(Cl)cc1 [compound 186017] | -12% | -13% | -4% | -6% | – | – | – | –
Cc1ccccc1-n1nc(C(=O)c2cccs2)cc(-c2nc3ccccc3[nH]2)c1=N [compound 186018] | 42% | 35% | 4% | -4% | – | – | – | –

SMILES | inhibition at 10 µM (H1650) | inhibition at 10 µM (H3255) | inhibition at 10 µM (H2030) | inhibition at 10 µM (H1975) | percentage inhibition H1650 (H1650) | percentage inhibition H3255 (H3255) | percentage inhibition H2030 (H2030) | percentage inhibition H1975 (H1975)
N=c1c(-c2nc3ccccc3[nH]2)cc(C(=O)c2cccs2)nn1-c1ccccc1 [compound 186924] | 7% | 8% | 1% | 14% | – | – | – | –
COc1ccc(-n2nc(C(=O)c3cccs3)cc(-c3nc4ccccc4[nH]3)c2=N)cc1 [compound 186925] | 6% | -28% | 1% | 3% | – | – | – | –
N#Cc1ccccc1-n1nc(C(=O)c2cccs2)cc(-c2nc3ccccc3[nH]2)c1=N [compound 186926] | – | – | – | – | 27% | 52% | 2% | 81%
CC(=O)N(C(C)=O)c1c(Cl)cnn(-c2ccccc2)c1=O [compound 187116] | 31% | 27% | 4% | 90% | – | – | – | –
COc1cnn(-c2ccccc2)c(=O)c1S [compound 187118] | 101% | 108% | 7% | 96% | – | – | – | –
Cc1cc(N(C)C)c(=O)n(-c2ccccc2)n1 [compound 189015] | 21% | 32% | -4% | 29% | – | – | – | –
O=c1ccc(O)nn1-c1ccccc1 [compound 189286] | 0% | -15% | 5% | 9% | – | – | – | –
COC(=O)NCCOc1cnn(-c2ccccc2)c(=O)c1 [compound 189493] | 2% | -25% | -8% | 12% | – | – | – | –
COc1ccc(-n2nc(C(=O)c3ccccc3)cc(-c3nc4ccccc4[nH]3)c2=N)cc1 [compound 193067] | -7% | -35% | 4% | 21% | – | – | – | –
CCc1c(C(=O)OC)nn(-c2ccc(C)cc2)c(=O)c1C#N [compound 193326] | -2% | -49% | -9% | -1% | – | – | – | –
COc1ccc(-n2nc(Cl)ccc2=O)cc1 [compound 194491] | -2% | -32% | -12% | 0% | – | – | – | –
O=c1c(Cl)c(N2CCN(CCO)CC2)cnn1-c1cccc(Cl)c1 [compound 194617] | -9% | -5% | -4% | 9% | – | – | – | –
CN1CCN(c2cnn(-c3ccc(Cl)cc3)c(=O)c2Cl)CC1 [compound 194618] | -15% | -48% | -6% | -3% | – | – | – | –
Cc1c(C(=O)NN)nn(-c2ccccc2)c(=O)c1C#N [compound 194841] | -1% | -35% | -9% | -15% | – | – | – | –
O=c1c(SCc2ccc(Cl)cc2)c(SC2CCCCO2)cnn1-c1ccccc1 (centres unmarked) [compound 195063] | 22% | -6% | -6% | 34% | – | – | – | –
O=c1cc(N2CCOCC2)cnn1-c1ccccc1 [compound 195066] | 8% | -9% | 9% | -3% | – | – | – | –
O=c1c(Sc2ccccc2)c(Sc2ccccc2)cnn1-c1ccccc1 [compound 195070] | 8% | -73% | -7% | 9% | – | – | – | –
O=c1c(SCc2ccco2)c(SCc2ccco2)cnn1-c1ccccc1 [compound 195071] | 71% | 82% | 9% | 77% | – | – | – | –
O=c1ccc(Cl)nn1-c1ccccc1 [compound 195149] | -4% | -19% | -5% | 11% | – | – | – | –

From patent US20100210649A1, “PYRIDAZINONES AND FURAN-CONTAINING COMPOUNDS” (Sloan-Kettering Institute for Cancer Research, priority 2006, published 2010)
